Measured values reported in patent US20260256704A1, “STEALTH-STABILIZED LIPO-POLYAMINO ACIDS” (POLYPEPTIDE THERAPEUTIC SOLUTIONS, S.L., priority 2022, published 2026).

Key:
[1] = system: HeLa cells; test: Luciferase assay for transfection efficiency in HeLa cells; type: cell-based; conditions: LNPs containing the conjugate
Procedure: (§1) HeLa cells were cultured in DMEM high glucose with Glutamax (Gibco—Thermo Fisher #61965-059) supplemented with 10% of Fetal Bovine Serum (Hyclone #SV30160.03HI, provided by GE Healthcare Europe GmbH) and 1% penicillin/streptomycin. Transfections were carried out on 96-well plates containing 10000 cells/well in a final volume of 100 μl, and cells were incubated 24 hours at 37° C. and 5% CO2. After 24 h from cell seeding, the medium was removed and refreshed with 90 μl of complete medium. 10 μl of each LNPs formulation were added to the cells. In the case of positive control (Lipofectamine™ 2000 Transfection Reagent, Invitrogen™), manufacturer guidelines were followed. After 24 hours cells were recovered and processed.
(§2) After 24 h post-incubation with the LNPs formulation, 100 μl of BrightGlo reagent (Promega #E2620) was added in each well following manufacturer instructions. After 5 minutes of incubation at room temperature luciferase activity was measured using VictorNivo (PerkinElmer). Data was represented as luminescence relative to the percentage of transfection relative to the positive control of transfection.
The transfection data is represented as % of the positive control Lipofectamine™ 2000 being the positive control 100% after 24 h of treatment and cell viability is compared to non-treated (NT) cells, being the ATP content readout of NT (non-treated) cells equal to 100%.

[2] = system: HEK293 cells; test: Luciferase assay for transfection efficiency in HEK293 cells; type: cell-based; conditions: at different concentrations (50-300 ng mRNA/well)
Procedure: as §1, with “HEK293” for “HeLa”, “30000” for “10000”, “cells.” for “cells. In the case of positive control (Lipofectamine™ 2000 Transfection Reagent, Invitrogen™), manufacturer guidelines were followed.”
as §2, with “transfection. […]” for “transfection.”

Substance | transfection efficiency relative to the gold standard Lipofectamine [1] [fold] | transfection efficiency relative to the commercial standard DMG-PEG [2]
C14-PGA(Diol) [Lipo-PAA1] | 2.5 | –
C14-PSar [C14PSar] | – | comparable transfection to DMG-PEG
